The results in this text go back to PubChem BioAssay (NCI).

Some test systems named below: KM12 colon; NCI-H23 lung; SK-MEL-2 melanoma; MALME-3M melanoma; SR leukemia; U251 CNS; SK-MEL-28 melanoma; UO-31 renal; OVCAR-5 ovarian; SNB-19 CNS.
What all share (assay): NCI-60 cell line screen, 48 h

Each structure is given as a SMILES string.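 Each compound was tested at five concentrations against cells in 96-well plates for 48 hours. GI50 is the concentration that inhibits growth by half. TGI: total growth inhibition.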 A value given as a limit tells only on which side of the number the result lay.

With `CCN(CC)CCNC(=O)c1cn2ncnc(Oc3ccc(NC(=O)Nc4ccc(Cl)c(C(F)(F)F)c4)c(F)c3)c2c1C`, the GI50 with KM12 colon is 1.57 µM; in the experiment on NCI-H23 lung it was 1.62 µM; with SK-MEL-2 melanoma, 1.61 µM; in the experiment on MALME-3M melanoma, 1.15 µM; with SR leukemia it was 0.343 µM; in the experiment with U251 CNS it was 1.59 µM. Moreover, the GI50 is 1.47 µM with SK-MEL-28 melanoma, 2.1 µM in the experiment on UO-31 renal, 1.86 µM in the experiment with OVCAR-5 ovarian and 1.95 µM in the experiment with SNB-19 CNS. Moreover, the TGI with KM12 colon turned out to be 3.08 µM; in the experiment on NCI-H23 lung it was 3.17 µM; in the experiment with SK-MEL-2 melanoma it was 3.3 µM; in the experiment with MALME-3M melanoma it was 2.55 µM; with SR leukemia, 1.09 µM; in the experiment on U251 CNS it was 3.07 µM. Moreover, the TGI in the experiment on SK-MEL-28 melanoma turned out to be 2.79 µM; in the experiment on UO-31 renal, 3.63 µM; in the experiment with OVCAR-5 ovarian it was 3.33 µM; with SNB-19 CNS it was 3.5 µM.

As for `Cc1ncc(C(=O)Nc2ccc(CN3CCN(C)CC3)c(C(F)(F)F)c2)cc1C#Cc1cnc(NC2CC2)c2ncccc12`, the GI50 is 0.197 µM in the experiment with KM12 colon; 0.646 µM in the experiment on NCI-H23 lung; 1.66 µM in the experiment on SK-MEL-2 melanoma; 0.57 µM with MALME-3M melanoma; 0.493 µM with SR leukemia; 0.581 µM in the experiment on U251 CNS. In addition, the GI50 in the experiment on SK-MEL-28 melanoma is 0.641 µM; with UO-31 renal, 0.675 µM; in the experiment on OVCAR-5 ovarian it was 0.668 µM; in the experiment on SNB-19 CNS, 0.713 µM. The TGI in the experiment on KM12 colon stood at 0.819 µM; in the experiment with NCI-H23 lung, 1.36 µM; in the experiment on SK-MEL-2 melanoma, 5.54 µM; with MALME-3M melanoma, 1.15 µM; in the experiment with SR leukemia, 1.27 µM; in the experiment on U251 CNS it was 1.11 µM. Further, the TGI worked out at 1.18 µM with SK-MEL-28 melanoma, 1.19 µM in the experiment on UO-31 renal, 1.32 µM in the experiment on OVCAR-5 ovarian and 1.32 µM in the experiment with SNB-19 CNS.

Take `Cc1cc2c(Br)cc(Br)c(O)c2nc1C(=O)c1ccccc1`: the TGI was above 100 µM in the experiment on KM12 colon; 51.1 µM in the experiment with NCI-H23 lung; 97.2 µM in the experiment on SK-MEL-2 melanoma; above 76.9 µM with MALME-3M melanoma; above 100 µM with SR leukemia; above 71.3 µM in the experiment with U251 CNS. Moreover, the TGI is above 100 µM in the experiment on SK-MEL-28 melanoma, above 82.1 µM with UO-31 renal, above 68.5 µM with OVCAR-5 ovarian and above 100 µM with SNB-19 CNS.

For `CCCCCCCCCCN=C(c1ccc(N(C)C)cc1)c1ccc(N(C)C)cc1`, the GI50 with KM12 colon is 0.414 µM; in the experiment with NCI-H23 lung it was 1.58 µM; in the experiment on SK-MEL-2 melanoma it was 0.492 µM; with MALME-3M melanoma, 16.6 µM; in the experiment on SR leukemia it was 0.211 µM; in the experiment with U251 CNS it was 0.579 µM. Also, the GI50 was 7.39 µM with SK-MEL-28 melanoma, 2.39 µM with UO-31 renal, 7.65 µM in the experiment with OVCAR-5 ovarian and 1.06 µM in the experiment on SNB-19 CNS. The TGI in the experiment with KM12 colon was above 75.8 µM; in the experiment on NCI-H23 lung it was above 75.4 µM; with SK-MEL-2 melanoma it was 33.2 µM; with MALME-3M melanoma, 65.8 µM; with SR leukemia, above 46.8 µM; in the experiment with U251 CNS it was 33.2 µM. For the same compound, the TGI was above 100 µM with SK-MEL-28 melanoma, 33 µM with UO-31 renal, above 100 µM in the experiment with OVCAR-5 ovarian and above 76 µM in the experiment with SNB-19 CNS.

Take `COc1cccc(/C=C2\CCC(C)(CN(C)C)C2=O)c1` (stereo not given): the TGI in the experiment on KM12 colon, in the experiment on NCI-H23 lung, in the experiment on SK-MEL-2 melanoma, in the experiment with MALME-3M melanoma, in the experiment with SR leukemia and in the experiment on U251 CNS was above 100 µM each time. In addition, the TGI with SK-MEL-28 melanoma, in the experiment with UO-31 renal, in the experiment with OVCAR-5 ovarian and in the experiment on SNB-19 CNS was above 100 µM each time.

Regarding `C=C1CC2(OC1=O)C(=O)N(CCCN1C(=O)C3(CC(=C)C(=O)O3)c3ccccc31)c1ccccc12` (stereo not given), the GI50 was 2.72 µM with KM12 colon; 2.34 µM in the experiment on NCI-H23 lung; 10.4 µM with SK-MEL-2 melanoma; 1.7 µM in the experiment on MALME-3M melanoma; 0.33 µM with SR leukemia; 5.45 µM in the experiment with U251 CNS. The GI50 with SK-MEL-28 melanoma was 1.92 µM; with UO-31 renal, 1.53 µM; in the experiment with OVCAR-5 ovarian, 2.07 µM; in the experiment with SNB-19 CNS it was 13.3 µM. The TGI with KM12 colon came out at 12 µM; in the experiment on NCI-H23 lung, 6.14 µM; in the experiment with SK-MEL-2 melanoma, 32.3 µM; in the experiment on MALME-3M melanoma, 3.21 µM; with SR leukemia, 1.35 µM; with U251 CNS, 18.7 µM. Further, the TGI was 3.61 µM with SK-MEL-28 melanoma, 2.97 µM with UO-31 renal, 4.55 µM with OVCAR-5 ovarian and 26.2 µM in the experiment with SNB-19 CNS.

Turning to `CNC(SC)=C1C(=O)OC(C)(C)OC1=O`, the TGI was above 100 µM in the experiment with KM12 colon; above 100 µM with NCI-H23 lung; above 100 µM with SK-MEL-2 melanoma; above 100 µM in the experiment with MALME-3M melanoma; above 100 µM in the experiment on SR leukemia; 37.7 µM in the experiment on U251 CNS. In addition, the TGI in the experiment with SK-MEL-28 melanoma, in the experiment on UO-31 renal, with OVCAR-5 ovarian and in the experiment on SNB-19 CNS was above 100 µM in each case.
